Where two headings read alike, the source gives them in different places.
Tests used:
[1] = molecular target: T1, cyclin D1/cdk 4 enzyme (Homo sapiens, UniProt P11802); test: CDK4 ELISA kinase assay (phospho-Rb ser 795 detection); type: biochemical
T1 construct: made in house; host or cells: Sf9 insect cells, recombinant baculovirus
Method in brief: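 Wells were coated overnight with GST-Rb C-terminal fragment, then blocked. Compound (10 ug/ml final) and cyclin/CDK enzyme from baculovirus-infected Sf9 cells with 200 μM ATP reacted 1 h at 30° C. Ser795 phosphorylation was detected by ELISA at 450 nm.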

[2] = tested on: LoVo; test: Cytotoxicity assay (SRB), LoVo; type: cell-based; details: LoVo cells, SRB, read-out: In Vitro Cellular Activity IC50 LOVO
Method in brief: (§1)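 Cells were seeded overnight in RPMI 1640 with 5% FBS at 37 °C, 7% CO2 (12000/well BT474, 4000 HCT-116, 6000 LoVo, 6000 MCF-7), then exposed to compound dilutions for 3 days (6 days for BT474). Survival versus untreated controls was measured by TCA fixation and SRB staining at 540 nm.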

[3] = tested on: HCT-116; test: Cytotoxicity assay (SRB), HCT-116; type: cell-based; details: HCT116 cells, SRB, read-out: In Vitro Cellular Activity IC50 HCT116
Method in brief: as §1

[4] = molecular target: T2, cyclin E/CDK2 enzyme (Homo sapiens, UniProt P24941); test: CDK2 ELISA kinase assay (phospho-Rb ser 795 detection); type: biochemical
T2 construct: made in house; host or cells: Sf9 insect cells, recombinant baculovirus
Description: (§2) • 1. High-binding ELISA microtiter plates (Costar) were coated with 40 μl of the kinase substrate (GST fusion of C-terminal fragment of the retinoblastoma susceptibility gene product) diluted to 10 μg/ml in tris-buffered saline (TBS), overnight at 4° C. • 2. Non-specific binding sites were blocked for 1 hour at 4° C. with Superblock in TBS (Pierce), and the plates rinsed with water. • 3. For the screen, 1.5 μl of test compound (200 μg/ml stock in 20% DMSO/20 mM HEPES, pH 7.5) was added to each well. Final dose of the test compound in the assay was 10 ug/ml. […] The kinase reaction (30 μl) was dispensed into each well. Reactions contained 200 μM ATP, 0.5 mg/ml bovine serum albumin (BSA; Sigma), and 0.5 μl partially purified cyclin D1/cdk 4 enzyme*. The enzyme complex is expressed in insect cells (Sf9) infected with recombinant baculovirus and partially purified using ammonium sulfate fractionation. Reaction volumes were adjusted to 30 μl with kinase assay buffer (50 mM HEPES, pH 7.5, 10 mM MgCl2, 5% glycerol, 10 mM 2-mercaptoethanol). • *: For CDK2 assay, 1.0 μl cyclin E/CDK2 enzyme (diluted 1:1000 in kinase assay buffer) was used. The enzyme is isolated from insect cells (Sf9) infected with recombinant baculovirus and partially purified using ammonium sulfate fractionation. For CDK1 assay, 0.08 μl cyclin B/CDK1 enzyme [New England BioLabs; the enzyme is isolated from insect cells (Sf9) infected with recombinant baculovirus carrying human cdc 2 and human cyclin B] was used.
(§3) […] • 5. Plates were incubated at 30° C. for 1 hour. • 6. The reaction mixture was removed by aspiration and replaced with 250 μl TBS containing 0.1% Tween-20 and 5% nonfat dry milk (blocking buffer). The plates were incubated at 4° C. for 1 hour. • 7. The blocking buffer was removed and replaced with 50 μl of the primary antibody [anti-phospho-Rb ser 795 (New England BioLabs) diluted 1:1000 in blocking buffer]. Incubation was at 4° C. for 16-20 hours. • 8. The wells were rinsed 3 times with 250 μl of TBS containing 0.1% Tween-20 followed by the addition of 50 μl of secondary antibody [anti-rabbit IgG conjugated to horseradish peroxidase (Amersham Life Science) diluted 1:1000 in blocking buffer]. • 9. After a 1 hour incubation at room temperature, the wells were rinsed 3 times with 250 μl of TBS/0.1% Tween 20. • 10. TMB (3,3′,5,5′-tetramethylbenzidine dihydrochloride) substrate solution (100 μl; Pierce) was added to each well and the color development reaction allowed to proceed 5-10 minutes at room temperature with shaking. The reaction was stopped by the addition of 2N sulfuric acid (100 μl) and the absorbance values read at 450 nm in a microplate reader (Molecular Devices). Analysis of Results: • 1. The percentage of the absorbance value in wells containing the test compound relative to control wells (no test agent) was determined. • 2. IC50 values of selected compounds were determined from inhibition curves, after subtracting background values (no substrate).

[5] = tested on: MCF-7; test: Cytotoxicity assay (SRB), MCF-7; type: cell-based; details: MCF-7 cells, SRB, read-out: In Vitro Cellular Activity IC50 MCF-7
Method in brief: as §1

[6] = tested on: BT474; test: Cytotoxicity assay (SRB), BT474; type: cell-based
Method in brief: as §1

[7] = molecular target: T3, cyclin B/CDK1 enzyme (Homo sapiens, UniProt P06493); test: CDK1 ELISA kinase assay (phospho-Rb ser 795 detection); type: biochemical
T3 construct: purchased New England BioLabs; host or cells: Sf9 insect cells, recombinant baculovirus
T3 sequence (P06493 whole entry): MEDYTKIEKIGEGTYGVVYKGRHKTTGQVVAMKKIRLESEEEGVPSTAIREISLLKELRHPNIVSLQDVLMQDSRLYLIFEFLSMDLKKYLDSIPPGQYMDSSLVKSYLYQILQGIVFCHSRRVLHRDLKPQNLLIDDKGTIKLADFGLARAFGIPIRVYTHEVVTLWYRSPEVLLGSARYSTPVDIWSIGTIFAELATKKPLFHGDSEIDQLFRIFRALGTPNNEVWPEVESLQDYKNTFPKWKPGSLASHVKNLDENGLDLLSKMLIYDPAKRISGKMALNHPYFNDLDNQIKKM
T3 sequence (P14635 whole entry partner): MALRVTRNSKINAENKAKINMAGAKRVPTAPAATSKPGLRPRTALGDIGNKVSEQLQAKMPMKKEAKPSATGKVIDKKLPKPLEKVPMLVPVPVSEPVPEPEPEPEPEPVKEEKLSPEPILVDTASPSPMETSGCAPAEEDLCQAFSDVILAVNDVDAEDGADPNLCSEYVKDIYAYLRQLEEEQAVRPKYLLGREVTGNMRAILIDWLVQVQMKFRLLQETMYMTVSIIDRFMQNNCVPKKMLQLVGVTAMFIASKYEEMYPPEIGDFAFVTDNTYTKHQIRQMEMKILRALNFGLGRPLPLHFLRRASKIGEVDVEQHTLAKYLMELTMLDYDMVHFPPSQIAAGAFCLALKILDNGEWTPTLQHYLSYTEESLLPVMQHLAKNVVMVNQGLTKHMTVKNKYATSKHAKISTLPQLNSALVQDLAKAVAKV
Description: as §2, §3

[8] = In Vitro Enzyme Assays, 200 μM ATP, read-out: CDK4 IC50
[9] = Homo sapiens, LoVo, 72 h, 3 days
[10] = Homo sapiens, HCT-116, 72 h, 3 days
[11] = In Vitro Enzyme Assays, read-out: CDK2 IC50
[12] = Homo sapiens, MCF7, 72 h, 3 days
[13] = Homo sapiens, BT-474, 144 h, BT474 cells, 6 days, SRB; read-out: In Vitro Cellular Activity IC50 BT474
[14] = In Vitro Enzyme Assay, cyclin D1/cdk 4, read-out: CDK4 IC50
[15] = In Vitro Enzyme Assay, cyclin E/CDK2, read-out: CDK2 IC50
[16] = In Vitro Enzyme Assay, cyclin B/CDK1, read-out: CDK1 IC50
[17] = Homo sapiens, LoVo, 72 h, three days
[18] = Homo sapiens, HCT-116, 72 h, three days
[19] = In Vitro Enzyme Assays, read-out: CDK1 IC50
[20] = Homo sapiens, MCF7, 72 h, three days
[21] = Homo sapiens, BT-474, 144 h, BT474 cells, SRB, 6 days; read-out: In Vitro Cellular Activity IC50 BT474

T1 sequence (P11802 whole entry, species assumed): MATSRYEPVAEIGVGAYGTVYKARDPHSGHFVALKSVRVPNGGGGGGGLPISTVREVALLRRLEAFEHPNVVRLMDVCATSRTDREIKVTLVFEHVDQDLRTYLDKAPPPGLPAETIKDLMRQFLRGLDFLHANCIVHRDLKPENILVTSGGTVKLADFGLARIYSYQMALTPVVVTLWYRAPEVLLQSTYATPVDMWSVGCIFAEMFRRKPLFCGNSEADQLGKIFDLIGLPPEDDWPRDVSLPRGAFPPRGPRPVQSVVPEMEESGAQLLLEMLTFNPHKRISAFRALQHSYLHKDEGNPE
T1 sequence (P24385 whole entry partner, species assumed): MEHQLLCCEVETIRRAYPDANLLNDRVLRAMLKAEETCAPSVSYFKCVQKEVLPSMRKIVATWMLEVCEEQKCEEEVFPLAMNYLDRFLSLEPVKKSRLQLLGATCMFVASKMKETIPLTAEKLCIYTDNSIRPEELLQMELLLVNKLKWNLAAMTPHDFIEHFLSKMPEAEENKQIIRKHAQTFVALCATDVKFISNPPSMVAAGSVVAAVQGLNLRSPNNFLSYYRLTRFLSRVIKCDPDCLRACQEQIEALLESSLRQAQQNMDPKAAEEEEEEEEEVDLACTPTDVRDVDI

Row | SMILES | IC50 [1, 8] [µM] | IC50 [2, 9] [µM] | IC50 [3, 10] [µM] | IC50 [5, 12] [µM] | IC50 [6, 13] [µM] | IC50 [1, 14] [µM] | IC50 [4, 15] [µM] | also measured
1 | CN(C)CCNC(=O)C1CCN(c2ccc(N/C=C3\C(=O)NC(=O)c4ccc(I)cc43)cc2)CC1 [Example 433, N-[2-(Dimethylamino)ethyl]-1-(4-{[(Z)-(6-iodo-1,3-dioxo-2,3-dihydroisoquinolin-4(1H)-ylidene)methyl]amino}phenyl)piperidine-4-carboxamide] | 1.2 | 2.8 | 2 | 3.1 | 4.5 |  |  | IC50 [4, 11]: > 50 µM
2 | COc1ccc(CNC=C2C(=O)NC(=O)c3ccc(C=CCN4CC(=O)NC4=O)cc32)cc1O [Example 826, 6-[3-(2,4-Dioxo-imidazolidin-1-yl)-propenyl]-4-[(3-hydroxy-4-methoxy-benzylamino)-methylene]-4H-isoquinoline-1,3-dione] |  | > 50 | 36.9 | > 50 | > 50 | 0.11 | 12.9 | 
3 | O=C1NC(=O)c2ccc(I)cc2/C1=C/NCc1ccc(-c2cccnc2)c(O)c1 [Example 515, 4-[(3-Hydroxy-4-pyridin-3-yl-benzylamino)-methylene]-6-iodo-4H-isoquinoline-1,3-dione] |  | 0.38 | 0.44 | 1.1 | 0.34 |  | 3.6 | 
4 | O=C1NC(=O)c2ccc(I)cc2/C1=C/NCc1ccn(-c2ccccc2)c(=O)c1 [Example 518, (4Z)-6-Iodo-4-({[(2-oxo-1-phenyl-1,2-dihydropyridin-4-yl)methyl]amino}methylene)isoquinoline-1,3(2H,4H)-dione] |  |  |  |  |  | 0.11 |  | IC50 ([2]; 3 days): 0.15 µM; IC50 ([3]; 3 days): 0.23 µM; IC50 [7, 16]: > 50 µM; IC50 ([5]; 3 days): 0.64 µM; IC50 ([6]; BT474 cells, 6 days, SRB; read-out: In Vitro Cellular Activity IC50 BT474): 0.08 µM
5 | C=CCOc1ccc(CN/C=C2\C(=O)NC(=O)c3ccc(Br)cc32)cc1O [Example 149, (4Z)-4-({[4-(Allyloxy)-3-hydroxybenzyl]amino}methylene)-6-bromoisoquinoline-1,3(2H,4H)-dione] | 0.33 |  |  |  |  |  |  | IC50 [2, 17]: 27 µM; IC50 [3, 18]: 18 µM; IC50 [7, 19]: > 50 µM; IC50 [5, 20]: > 50 µM; IC50 [6, 21]: 12 µM
6 | O=C1NC(=O)c2ccc(I)cc2/C1=C/NCc1ccc(-c2ccco2)c(O)c1 [Example 505, 4-[(4-Furan-2-yl-3-hydroxy-benzylamino)-methylene]-6-iodo-4H-isoquinoline-1,3-dione] |  | 0.27 | 0.38 | 0.7 | 0.26 |  | 8.4 | 
7 | O=C1NC(=O)c2ccc(Br)cc2/C1=C/NCc1ccc(OCCO)c(O)c1 [Example 139, (4Z)-6-Bromo-4-({[3-hydroxy-4-(2-hydroxyethoxy)benzyl]amino}methylene)isoquinoline-1,3(2H,4H)-dione] | 0.04 |  |  |  |  |  |  | IC50 [2, 17]: 26 µM; IC50 [3, 18]: > 50 µM; IC50 [7, 19]: > 50 µM; IC50 [5, 20]: > 50 µM; IC50 [6, 21]: 15 µM
8 | COc1ccc(CNC=C2C(=O)NC(=O)c3ccc(-c4ccc5ccccc5c4)cc32)cc1O [Example 834, 4-[(3-Hydroxy-4-methoxy-benzylamino)-methylene]-6-naphthalen-2-yl-4H-isoquinoline-1,3-dione] |  | 23.1 | 29.6 | 18.6 | 13.2 | 0.29 |  | IC50 [7, 16]: > 50 µM
9 | O=C1NC(=O)c2ccc(-c3ccc(Cl)cc3)cc2/C1=C/Nc1ccc(CN2CCCCC2)cc1 [Example 111, (4Z)-6-(4-Chlorophenyl)-4-({[4-(piperidin-1-ylmethyl)phenyl]amino}methylene)isoquinoline-1,3(2H,4H)-dione] | 19.4 |  |  |  |  |  |  | IC50 [2, 17]: 1.2 µM; IC50 [3, 18]: 1.2 µM; IC50 [7, 19]: > 50 µM; IC50 [5, 20]: 2.1 µM; IC50 [6, 21]: 2.8 µM
10 | CN1CCN(c2ccc(N/C=C3\C(=O)NC(=O)c4ccc(-c5ccc(C=O)o5)cc43)cc2)CC1 [Example 124, 5-[(4Z)-4-({[4-(4-Methylpiperazin-1-yl)phenyl]amino}methylene)-1,3-dioxo-1,2,3,4-tetrahydroisoquinolin-6-yl]-2-furaldehyde] | 0.36 |  |  |  |  |  |  | IC50 [2, 17]: 5 µM; IC50 [3, 18]: 2.6 µM; IC50 [4, 11]: > 50 µM; IC50 [5, 20]: 7.9 µM; IC50 [6, 21]: 9.1 µM
11 | Cc1cccc(-c2ccc3c(c2)C(=CNCc2ccc(O)c(O)c2)C(=O)NC3=O)c1 [Example 782, 4-[(3,4-Dihydroxy-benzylamino)-methylene]-6-m-tolyl-4H-isoquinoline-1,3-dione] |  | 15.8 | 15.8 | 14.3 | 20.3 | 2.12 |  | IC50 [7, 16]: > 50 µM
12 | CN1CCN(c2ccc(NC=C3C(=O)NC(=O)c4ccc(-c5ccco5)cc43)cc2)CC1 [Example 830, 6-Furan-2-yl-4-{[4-(4-methyl-piperazin-1-yl)-phenylamino]-methylene}-4H-isoquinoline-1,3-dione] |  | 3.6 | 2.7 | 3.3 | 1.2 | 0.17 |  | IC50 [7, 16]: > 50 µM
13 | N#CCc1ccc(C=Cc2ccc3c(c2)C(=CNCc2ccc(O)c(O)c2)C(=O)NC3=O)cc1 [Example 805, [4-(2-{4-[(3,4-Dihydroxy-benzylamino)-methylene]-1,3-dioxo-1,2,3,4-tetrahydro-isoquinolin-6-yl}-vinyl)-phenyl]-acetonitrile] |  | 36.3 | 13.8 | 33.9 | 21.9 | 0.29 | 23.1 | 
14 | O=C1NC(=O)c2ccc(I)cc2/C1=C/NCc1cc(O)c(-c2ccoc2)cc1F [Example 520, 4-[(2-Fluoro-4-furan-3-yl-5-hydroxy-benzylamino)-methylene]-6-iodo-4H-isoquinoline-1,3-dione] |  | 0.9 | 1.2 | 2.2 | 0.66 | 0.01 | 12.1 | 

Source: patent publication US7713994B2 (Wyeth LLC, priority 2005, dated 2010)
